# Reference: patent publication US20140364445A1, “PHARMACEUTICAL COMPOSITION COMPRISING A TRPA1 ANTAGONIST AND AN ANTICHOLINERGIC AGENT” (GLENMARK PHARMACEUTICALS S.A., priority 2011, published 2014)
# Read-outs that look alike come from different tables or passages of the source.
# Experiments:
# LPS induced neutrophilia [1] = assay: LPS induced neutrophilia, Compound 52 and tiotropium; format: in vivo, female SD rats; conditions: for inhibition at 3 mg/kg: Rattus norvegicus, Neutrophil, po
# Procedure: The effect of combination of Compound 52 and tiotropium on LPS induced neutrophilia in female SD rats was evaluated. Female SD rats were grouped as mentioned in Table 6. Compound 52 (3 mg/kg/5 ml) and tiotropium (1 mcg/ml as inhalation for 3 min at the rate of 0.05 ml/min) were administered 2 and 1 hour prior to LPS exposure respectively. LPS was nebulized at concentration of 100 mcg ml^−1 for 40 min at 0.4 ml min^−1 and a pressure of 1.7 psig in a perspex exposure chamber (1.5×1×1 ft) fitted with nebulizer (RCI Hudson). Control animals were given saline exposure under similar conditions.
# (§1) Bronchoalveolar lavage (BAL) was done after 4 h of LPS exposure. Animal was anesthetized with urethane (1.2 gm/kg/5 mL, i.p. in normal saline) and BAL was done with PBS (3 ml). This procedure was repeated three times and the BAL fluid was pooled for the measurement of total leukocyte. BAL fluid was centrifuged immediately at 4000 rpm for 20 min and the pellet formed in the bottom of the tube was used for the smear preparation for differential leukocyte count estimation.
# [2] = system: methacholine-induced bronchoconstriction; assay: Methacholine challenge test (methacholine-induced bronchoconstriction), invasive whole body plethysmograph; format: in vivo, male Dunkin Hartley guinea pig; conditions: for inhibition at 10 mg/kg: Cavia porcellus, read-out: % inhibition in airway resistance (Mean ± SEM)
# Procedure: The effect of Compound 52, tiotropium bromide and their combination on methacholine challenge test in male Dunkin Hartley guinea pig was evaluated using invasive whole body plethysmograph (Elan™ R C, Buxco apparatus). Animals and grouped as described in Table 2.
# Animals were anesthetized by intraperitonial injection of urethane (1 g/kg). The surgical process carried out in the aseptic area. Right jugular vein of anesthetized animal was exposed and cannulated with fine bore polythene tube. Trachea was also cannulated for artificial respiration and to measure airway resistance. The prepared animal was fixed in the invasive whole body plethysmograph with artificial respiration (tidal volume −7 ml). Methacholine challenge test was performed and the recordings were taken by the following schedule. • First log period: Baseline −5 min • Second log period: Normal saline −3 min • Third log period: Methacholine −3 min
# This protocol was performed for all groups. Compound 52 (10 mg/kg, i.p.) was injected 4 hour prior to methacholine challenge. Tiotropium (0.5 mcg/kg, i.v) was given at second log period. In third log period, the animal was injected with methacholine (60 mcg/kg/2 ml, i.v). The methacholine induced bronchoconstriction (expressed as airway resistance (RI value in cmH2O*sec/ml)) was recorded by Buxco apparatus.
# LPS induced neutrophilia [3] = assay: LPS induced neutrophilia, Compound 52 and ipratropium bromide; format: in vivo, male SD rats; conditions: for inhibition at 6 mg/kg: Rattus norvegicus, Neutrophil, po
# Procedure: Animals were grouped as mentioned in Table 8. LPS at a concentration of 100 mcg ml^−1 was nebulized for 40 min at 0.4 ml/min and a pressure of 1.7 psig in a Perspex exposure chamber (1.5×1×1 ft) fitted with nebulizer (RCI Hudson). Control animals were given saline exposure under similar conditions. All the animals were treated as mentioned in Table 8. […] Bronchoalveolar lavage (BAL) was done after 4 h of LPS exposure. Animals were anesthetized with urethane (1.2 gm/kg/5 mL, i.p. in normal saline) and BAL was done with PBS (3 ml). This procedure was repeated three times and the BAL fluid was pooled for the measurement of total leukocyte. Remaining BAL fluid was centrifuged at 4000 rpm for 20 min. The pellet formed in the bottom of the tube was used for the smear preparation for differential leukocyte count estimation. The differential leukocyte count was done using Leishman's stain. […] Statistical significance was set at p<0.05.
# human TRPA1 receptor = target: T1, human TRPA1 receptor (Homo sapiens, UniProt O75762); assay: Inhibition of AITC induced cellular uptake of radioactive calcium in human TRPA1 expressing CHO cells; format: cell-based; conditions: read-out: hTRPA1 IC50 values
# T1 construct: expressed in transfected cells; host or cells: CHO cells
# Procedure: The human IC50 values were measured by the following method:
# The inhibition of TRPA1 receptor activation was measured as inhibition of allylisothiocyanate (AITC) induced cellular uptake of radioactive calcium.
# LPS induced neutrophilia [4] = assay: LPS induced neutrophilia, Compound 52 and aclidinium bromide; format: in vivo, male SD rats; conditions: BAL 4 h after LPS, Compound 52 3 mg/kg p.o., aclidinium 50 mcg/ml inh; for inhibition at 3 mg/kg: Rattus norvegicus, Neutrophil, po, read-out: No of neutrophils, % inhibition (mean ± S.E.M.) (converted)
# Procedure: The effect of combination of Compound 52 and aclidinium bromide on LPS induced neutrophilia in male SD rats was evaluated. Animals were grouped as mentioned in Table 4.
# LPS was nebulized at concentration of 100 mcg ml^−1 for 40 min at 0.4 ml/min and a pressure of 1.7 psig in a Perspex exposure chamber (1.5×1×1 ft) fitted with nebulizer (RCI Hudson). Control animals were given saline exposure under similar conditions. All the animals were treated with compounds as mentioned in Table 4. Compound 52 (3 mg/kg/5 ml) was administered orally 2 h prior to LPS and aclidinium (50 mcg/ml) was nebulized at the rate of 0.05 ml/min and exposed to the animals for 3 min prior LPS exposure.
# as §1, with “Animals were” for “Animal was”, “leukocyte. Remaining” for “leukocyte.”, “min. The” for “min and the”, “estimation. The smeared slides were fixed by alcohol and stained using Leishman's stain further carried for differential leukocyte count.” for “estimation.”
# [5] = BAL 4 h after LPS, Compound 52 3 mg/kg p.o., tiotropium 1 mcg/ml inh
# [6] = 4 h, read-out: No of neutrophils, % inhibition (mean ± S.E.M.)
# [7] = Compound 52 10 mg/kg i.p. 4 hour prior, tiotropium bromide 0.5 mcg/kg i.v., methacholine 60 mcg/kg i.v.
# [8] = BAL 4 h after LPS, Compound 52 6 mg/kg p.o., ipratropium 1 mg/ml inh
# T1 sequence (O75762 whole entry): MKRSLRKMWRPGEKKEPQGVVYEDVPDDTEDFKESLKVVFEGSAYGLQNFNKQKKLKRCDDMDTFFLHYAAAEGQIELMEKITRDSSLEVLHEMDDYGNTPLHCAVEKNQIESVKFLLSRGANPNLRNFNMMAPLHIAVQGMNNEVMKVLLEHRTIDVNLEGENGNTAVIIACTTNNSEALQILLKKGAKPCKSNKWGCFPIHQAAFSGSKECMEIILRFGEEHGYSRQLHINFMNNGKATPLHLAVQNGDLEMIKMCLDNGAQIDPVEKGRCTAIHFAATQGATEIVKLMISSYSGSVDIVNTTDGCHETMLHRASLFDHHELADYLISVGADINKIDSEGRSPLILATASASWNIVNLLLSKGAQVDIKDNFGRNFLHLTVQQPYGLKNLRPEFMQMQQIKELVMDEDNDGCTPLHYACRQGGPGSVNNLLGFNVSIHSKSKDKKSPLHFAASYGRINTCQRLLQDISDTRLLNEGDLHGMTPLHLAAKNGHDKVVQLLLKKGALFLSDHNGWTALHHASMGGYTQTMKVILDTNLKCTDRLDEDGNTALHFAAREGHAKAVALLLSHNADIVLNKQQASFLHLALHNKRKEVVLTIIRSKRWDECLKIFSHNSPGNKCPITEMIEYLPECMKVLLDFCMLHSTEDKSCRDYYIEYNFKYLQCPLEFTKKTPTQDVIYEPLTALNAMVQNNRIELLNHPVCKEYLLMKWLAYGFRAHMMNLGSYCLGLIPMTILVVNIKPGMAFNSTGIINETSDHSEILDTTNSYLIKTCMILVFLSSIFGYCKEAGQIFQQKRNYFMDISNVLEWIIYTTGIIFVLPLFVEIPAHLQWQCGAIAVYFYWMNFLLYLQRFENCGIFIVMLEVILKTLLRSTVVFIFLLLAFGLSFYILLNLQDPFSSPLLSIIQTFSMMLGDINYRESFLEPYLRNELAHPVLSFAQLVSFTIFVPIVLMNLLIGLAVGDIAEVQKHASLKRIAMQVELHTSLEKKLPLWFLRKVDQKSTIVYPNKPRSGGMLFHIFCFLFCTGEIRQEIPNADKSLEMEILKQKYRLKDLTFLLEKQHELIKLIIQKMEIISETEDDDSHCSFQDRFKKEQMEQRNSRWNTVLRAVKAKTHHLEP
Structure (SMILES),No of neutrophils (mean ± S.E.M.) (LPS induced neutrophilia [1]; [5]),"Mean airway resistance (Mean ± SEM) [2, 7]",No of neutrophils (mean ± S.E.M.) (LPS induced neutrophilia [3]; [8]),No of neutrophils (mean ± S.E.M.) (LPS induced neutrophilia [4]),inhibition at 3 mg/kg (LPS induced neutrophilia [4]),further results
"C[N+]1(C)[C@@H]2C[C@@H](OC(=O)C(O)(c3cccs3)c3cccs3)C[C@H]1[C@@H]1O[C@@H]12 [Tiotropium bromide, (1α, 2β, 4β, 5α, 7β)-7-[(hydroxydi-2-thienylacetyl)oxy]-9,9-dimethyl-3-oxa-9-azoniatricyclo[3.3.1.02,4] nonane bromide monohydrate, reference compound]",6.8 ± 0.7,1.51 ± 0.32 cmH2O*sec/ml,,,,inhibition at 3 mg/kg (LPS induced neutrophilia [1]; [6]): 18.9%; inhibition at 10 mg/kg [2]: -10.7 ± 23.4%
"CC(C)[N+]1(C)[C@@H]2CC[C@H]1C[C@@H](OC(=O)C(CO)c1ccccc1)C2 (some centres unmarked) [Ipratropium bromide, 8-azoniabicyclo (3.2.1) octane, 3-(3-hydroxy-1-oxo-2-phenylpropoxy)-8-methyl-8-(1-methylethyl)-, bromide monohydrate, reference compound]",,,6.2 ± 0.6,,,inhibition at 6 mg/kg (LPS induced neutrophilia [3]; [6]): 23%
Cn1c(=O)c2c(CC(=O)/N=c3\scc(-c4ccc(F)c(C(F)(F)F)c4F)n3COP(=O)(O)O)csc2n(C)c1=O [Compound 96],,,,,,IC50 (human TRPA1 receptor): 559 nM
"O=C(O[C@H]1C[N+]2(CCCOc3ccccc3)CCC1CC2)C(O)(c1cccs1)c1cccs1.[Br-] [Aclidinium bromide, [(8R)-1-(3-phenoxypropyl)-1-azoniabicyclo[2.2.2]octan-8-yl]2-hydroxy-2,2-dithiophen-2-ylacetate bromide, reference compound]",,,,7.13 ± 1.03,21.1%,
Cn1c(=O)c2c(CC(=O)Nc3nc(-c4ccc(F)c(C(F)(F)F)c4F)cs3)csc2n(C)c1=O [Compound 52],6.7 ± 0.9,0.77 ± 0.11 cmH2O*sec/ml,8.4 ± 0.8,6.73 ± 0.72,20.4%,"inhibition at 3 mg/kg (LPS induced neutrophilia [1]; BAL 4 h after LPS, Compound 52 3 mg/kg p.o., tiotropium 1 mcg/ml inh, read-out: No of neutrophils, % inhibition (mean ± S.E.M.) (converted)): 17.9%; inhibition at 10 mg/kg [2, 7]: 37.9 ± 6.7%; inhibition at 6 mg/kg (LPS induced neutrophilia [3]; BAL 4 h after LPS, Compound 52 6 mg/kg p.o., ipratropium 1 mg/ml inh, read-out: No of neutrophils, % inhibition (mean ± S.E.M.) (converted)): -3.2%"
